Measured values taken from patent US9012411B2, “Formulations from derivatives of curcumin, paclitaxel, and aspirin” (Organomed Corporation, priority 2009, dated 2015).
Values after ≈ are worked out from the molar mass of the structure shown. Marks after values point to notes of the source that are not given here.

Assays:
[1] = In vitro enzyme hydrolysis in human serum (HPLC); assay type: in vitro ADME; conditions: 25% human serum; for Test compound Rate: rate of decomposition of test compound; for Test compound Concentration: remaining test compound
Protocol: A 25% solution of human serum in 0.01M phosphate buffer was taken and the test compound (glucose aspirin or aspirin) were added to get a concentration of 0.2 mg/mL. The hydrolysis for the rate of release of salicylic acid and the rate of decomposition of the test compound were measured by HPLC.

[2] = system: cancer cell lines SKBR3, Panc1, PC-3; test: Cellular inhibition, Alamar Blue, cancer cell lines taken together; assay type: cell-based; conditions: 24 hours
Protocol: (§1) Assays were performed with 3 cancer cell lines: breast (SKBR3), pancreatic (Panc1), prostate (PC-3) and 1 normal (nor-cancer) cell line (WI-38). Compounds were delivered to the cells after dissolving in DMSO. Five dilutions per compound were tested on a total of 4 cell lines in 96 well plates. Cellular inhibition was measured using Alamar Blue. After addition of compound a 24 hour and 48 hour time point using fluorescent plate reader was taken. Data from plate reader was analyzed in the following way: % inhibition bar graphs, % inhibition line graphs and IC50 growth inhibition values. In Tables 7-14, IC50 units are Molar (M).

[3] = system: carrageenan induced rat paw edema; test: Carrageenan induced rat paw edema; assay type: in vivo, albino rats; conditions: for Percent inhibition of paw edema (Std. Error): Example 9, 100 mg/kg oral with food
Protocol: Animals were kept under 13 hour day night cycle. Animals were given standard diet and water was provided ad, libitum. All animals were acclimatized for at least one week before the experimental session. Animals were divided in to five groups. Each group consisted of 8 animals.
Pedal inflammation in albino rats of either sex was produced according to the method of Winter et al., (Proc Soc Exp Biol Med 1963; 111: 544-7). An injection was made with 0.1 ml of 1% carrageenan (SIGMA) suspension into the right hind foot of each rat in the plantar region. […] Control group 5 was given 0.5 ml saline and groups 1 and 2 received aspirin. Increase in linear paw circumference was measured by tying a piece of cotton thread round the rat's paw, and noting the point of intersection of two ends on a meter scale. This was taken as an index of increase in paw volume, which is a measure of oedema (Bamgbose S O A, Noamesi B K. Planta Med 1981; 42: 392-6). Measurements were taken immediately before and at 1, 2 and 3 hours after carrageenan injection. The inhibitory activity was calculated according to the following formula (Awe S O, Olajide O A, Adeboye J O, Makinde J M. Indian J Pharmacol 1998; 30: 38-42):
[formula] Ct-Linear paw circumference 3 hours after carrageenan injection and Co-Linear paw circumference before carrageenan injection.
Albino rats obtained from central animal house of institute were used in the study. The animals were kept under 12 hour day night cycle. Animals were given standard diet and water was provided ad libitum. All animals were acclimatized for at least one week before the experimental session. Animals were divided into twelve groups in the carrageenan induced paw edema and tail flick method. Each group consisted of 4 animal each.
Animals were divided into eight groups in the carrageenan induced paw edema and tail flick method. Each group consisted of 6 animal each. The groups received various chemicals as given in Table 16 by oral administration with food. The following methods were used to evaluate the activity of the compositions:
Pedal inflammation in albino rats of either sex was produced according to the method of Winter et al. (Proc. Soc. Exp. Biol. Med., 1963, 111: 544-547). An injection was made with 0.1 ml of 1% carrageenan (SIGMA) suspension into the right hind foot of each rat in the plantar region. The various chemicals were given 30 minutes before carrageenan injection. Increase in linear paw circumference was measured by tying a piece of cotton thread round the rat's paw, and noting the point of intersection of two ends on a meter scale. This was taken as an index of increase in paw volume, which is a measure of edema (Bamgbose, S. O. A. & Noamesi, B. K., Planta. Med., 1981, 42: 392-396). Measurements were taken immediately before and at 1, 2 and 3 hours after carrageenan injection. The inhibitory activity was calculated according to the following formula (Awe S O, Olajide O A, Adeboye J O, Makinde J M. Indian J. Pharmacol., 1998; 30: 38-42):
Animals were divided into six groups in the carrageenan induced paw edema and tail flick method. Each group consisted of 8 animals each. Carrageenan-induced rat paw edema and Tail flick test were performed as discussed above in Example 8. Data were analyzed using analysis of variance (ANOVA) with Posthoc Bonferroni multi-comparisons. P<0.05 was considered as statistically significant.

[4] = water at 25° C.; Merck Index; cited from earlier work
[5] = system: pancreatic (Panc1) cancer cell line; test: Cellular inhibition, Alamar Blue; assay type: cell-based; conditions: Homo sapiens, PANC-1
Protocol: as §1

[6] = system: normal (non-cancer) cell line WI-38; test: Cellular inhibition, Alamar Blue; assay type: cell-based; conditions: for IC50: Homo sapiens, WI-38
Protocol: as §1

[7] = system: prostate (PC-3) cancer cell line; test: Cellular inhibition, Alamar Blue; assay type: cell-based
Protocol: as §1

[8] = system: breast (SKBR3) cancer cell line; test: Cellular inhibition, Alamar Blue; assay type: cell-based; conditions: Homo sapiens, SK-BR-3
Protocol: as §1

[9] = system: tail flick latency in rats; test: Tail flick test (analgesic activity); assay type: in vivo, albino rats
Protocol: Rats were screened for tail flip reaction with a cut-off time of 5 seconds. For each animal, the tail flick latency was obtained thrice before drug administration and mean was used as pre-drug latency. The tail flick latencies were measured at 0, 0.5, 1, 1.5, 2 and 3 h after administration chemicals.
Albino rats obtained from central animal house of institute were used in the study. The animals were kept under 12 hour day night cycle. Animals were given standard diet and water was provided ad libitum. All animals were acclimatized for at least one week before the experimental session. […] Each group consisted of 4 animal each.
Rats were screened for tail flip reaction with a cut-off time of 5 seconds. For each animal, the tail flick latency was obtained thrice before drug administration and mean was used as pre-drug latency. The tail flick latencies were measured at 0, 0.5, 1, 1.5, 2 and 3 h after administration of chemicals.
Each group consisted of 8 animals each. […] Data were analyzed using analysis of variance (ANOVA) with Posthoc Bonferroni multi-comparisons. P<0.05 was considered as statistically significant.

[10] = system: PC3 cells; test: EC50 cytotoxicity, MTT assay, 48 hours; assay type: cell-based; conditions: Homo sapiens, PC-3; PC3, 48 hours, 0.04 ng/ml to 400 ng/ml
Protocol: (§2) Cytotoxicity of the compounds on three different cancer cell lines and one normal cell line was tested. Four human cell lines including both cancer cell lines (SK-BR-3, PANC-1, PC3) and normal cell line (W138) were initially employed. The cells (20,000 cells/well) were plated onto a 96-well plate for 24 hours before treatment. The compounds were diluted in the medium and added to the cells at different concentrations for additional 48 hours from 0.04 ng/ml to 400 ng/ml. MTT assay was then performed.

[11] = system: PANC-1 cells; test: EC50 cytotoxicity, MTT assay, 48 hours; assay type: cell-based; conditions: Homo sapiens; PANC-1, 48 hours, 0.04 ng/ml to 400 ng/ml
Protocol: as §2

[12] = system: SK-BR-3 cells; test: EC50 cytotoxicity, MTT assay, 48 hours; assay type: cell-based; conditions: Homo sapiens; SK-BR-3, 48 hours, 0.04 ng/ml to 400 ng/ml
Protocol: as §2

[13] = system: WI38 normal cell line; test: EC50 cytotoxicity, MTT assay, 48 hours; assay type: cell-based; conditions: Homo sapiens, WI-38; WI38, 48 hours, 0.04 ng/ml to 400 ng/ml
Protocol: as §2

[14] = system: PC3 cells; test: GI50 (50% inhibition of cell growth), MTT assay, 72 hours; assay type: cell-based; conditions: Homo sapiens, PC-3, 72 h, PC3, 72 hours
Protocol: (§3) The cells were plated onto a 96 well plate and treated with different concentrations of the compounds from 1 ng/ml to 10 ug/ml for 72 hours followed by MTT assay.
(§4) The cells were plated onto a 96 well plate and treated with different concentrations of the compounds from 0.04 ng/ml to 400 ng/ml for 72 hours followed by MTT assay.

[15] = system: PANC-1 cells; test: as above; assay type: cell-based; conditions: Homo sapiens, PANC-1, 72 h
Protocol: as §3, §4

[16] = system: SK-BR-3 cells; test: as above; assay type: cell-based; conditions: Homo sapiens, SK-BR-3, 72 h
Protocol: as §3, §4

[17] = system: WI38 normal cell line; test: as above; assay type: cell-based; conditions: Homo sapiens, WI-38, 72 h, WI38, 72 hours
Protocol: as §3, §4

[18] = Example 6, 50-200 mg/kg, compared with control groups and aspirin
[19] = 0.04 ng/ml to 400 ng/ml (Example 14)
[20] = 1 ng/ml to 10 ug/ml (Example 8)

## CC(=O)Oc1ccccc1C(=O)O [Aspirin, acetylsalicylic acid]
[1]; decomposition of test compound, 0-180 min
  Average rate, test compound: -1.57e-06 M/min
[1]; 0 min
  Test compound Rate: 0 M/min
  Test compound Concentration: 457 µM
[1]; 30 min
  Test compound Rate: -1.4e-06 M/min
  Test compound Concentration: 415 µM
[1]; 60 min
  Test compound Rate: -9.81e-07 M/min
  Test compound Concentration: 399 µM
[1]; 90 min
  Test compound Rate: -2.32e-06 M/min
  Test compound Concentration: 248 µM
[1]; 120 min
  Test compound Rate: -1.56e-06 M/min
  Test compound Concentration: 270 µM
[1]; 180 min
  Test compound Rate: -1.58e-06 M/min
  Test compound Concentration: 174 µM
[2]
  inhibition of cancer cell growth (in words): did not seem to inhibit growth by any significant means
[3]; Example 6, 100 mg/kg, 0 h
  Paw circumference: 3.125 ± 0.13 mm
[3]; Example 6, 100 mg/kg, 1 h
  Paw circumference: 3.475 ± 0.15 mm
[3]; Example 6, 100 mg/kg, 2 h
  Paw circumference: 3.6 ± 0.14 mm
[3]; Example 6, 100 mg/kg, 3 h
  Paw circumference: 3.475 ± 0.10 mm
[3]; Example 6, 200 mg/kg, 0 h
  Paw circumference: 3.3 ± 0.18 mm
[3]; Example 6, 200 mg/kg, 1 h
  Paw circumference: 3.425 ± 0.21 mm
[3]; Example 6, 200 mg/kg, 2 h
  Paw circumference: 3.575 ± 0.13 mm
[3]; Example 6, 200 mg/kg, 3 h
  Paw circumference: 3.55 ± 0.10 mm
[3]; [18]
  % inhibition of paw edema (in words): significantly inhibited the development of the edema
[3]; Example 8 (in vivo), 100 mg/kg oral with food, 0 h
  Paw circumference: 3.4 mm
[3]; Example 8 (in vivo), 100 mg/kg oral with food, 1 h
  Paw circumference: 3.82 mm
[3]; Example 8 (in vivo), 100 mg/kg oral with food, 2 h
  Paw circumference: 3.58 mm
[3]; Example 8 (in vivo), 100 mg/kg oral with food, 3 h
  Paw circumference: 3.67 mm
[3]; 1 hr
  Percent inhibition of paw edema (Std. Error): 55.44%
[3]; 2 hr
  Percent inhibition of paw edema (Std. Error): 79.16%
[3]; 3 hr
  Percent inhibition of paw edema (Std. Error): 75.29%
[4]
  Aspirin solubility in water: 0.33 g/100 mL
[5]; PANC1, 24 hours
  IC50: 975 µM
[5]; PANC1, 48 hours
  IC50: 745 µM
[6]; WI38, 24 hours
  IC50: 619 µM
[6]; WI38, 48 hours
  IC50: 501 µM
[7]; PC3, 24 hours
  IC50: 771 µM
[7]; PC3, 48 hours
  IC50: 782 µM
[8]; SKBR3, 24 hours
  IC50: 731 µM
[8]; SKBR3, 48 hours
  IC50: 693 µM
[9]; Example 5, 100 and 200 mg/kg i.p., rats
  Tail flick latency / analgesic activity (in words): significant increase in the tail flick latency
[9]; Example 6, 100 mg/kg, 0 min
  Tail flick latency time: 1.64 ± 0.27 s
[9]; Example 6, 100 mg/kg, 30 min
  Tail flick latency time: 3.28 ± 0.26 s
[9]; Example 6, 100 mg/kg, 60 min
  Tail flick latency time: 3.28 ± 0.57 s
[9]; Example 6, 100 mg/kg, 90 min
  Tail flick latency time: 2.88 ± 0.26 s
[9]; Example 6, 100 mg/kg, 120 min
  Tail flick latency time: 2.73 ± 0.48 s
[9]; Example 6, 100 mg/kg, 180 min
  Tail flick latency time: 2.05 ± 0.76 s
[9]; Example 6, 200 mg/kg, 0 min
  Tail flick latency time: 2.32 ± 0.46 s
[9]; Example 6, 200 mg/kg, 30 min
  Tail flick latency time: 3.46 ± 0.77 s
[9]; Example 6, 200 mg/kg, 60 min
  Tail flick latency time: 3.46 ± 0.17 s
[9]; Example 6, 200 mg/kg, 90 min
  Tail flick latency time: 3.03 ± 0.42 s
[9]; Example 6, 200 mg/kg, 120 min
  Tail flick latency time: 3.12 ± 0.30 s
[9]; [18]
  % MPE / analgesic activity in tail flick test (in words): significantly more
[9]; Example 8 (in vivo), 100 mg/kg oral with food, 0 min
  Tail flick latency time: 2.37 s
[9]; Example 8 (in vivo), 100 mg/kg oral with food, 30 min
  Tail flick latency time: 2.75* seconds
[9]; Example 8 (in vivo), 100 mg/kg oral with food, 60 min
  Tail flick latency time: 2.68 s
[9]; Example 8 (in vivo), 100 mg/kg oral with food, 90 min
  Tail flick latency time: 2.57 s
[9]; Example 8 (in vivo), 100 mg/kg oral with food, 120 min
  Tail flick latency time: 2.23 s
[9]; Example 8 (in vivo), 100 mg/kg oral with food, 180 min
  Tail flick latency time: 2.37 s

## CC(=O)O[C@H]1C(=O)[C@@]2(C)[C@H]([C@H](OC(=O)c3ccccc3)[C@]3(O)C[C@H](OC(=O)[C@H](O)[C@@H](NC(=O)c4ccccc4)c4ccccc4)C(C)=C1C3(C)C)[C@]1(OC(C)=O)CO[C@@H]1C[C@@H]2O [Taxol, Paclitaxel]
[10]
  EC50: 8.51 ng/mL (≈ 9.97 nM)
[11]
  EC50: 32.8 ng/mL (≈ 38.4 nM)
[12]
  EC50: 36.1 ng/mL (≈ 42.2 nM)
[13]
  EC50: 37.9 ng/mL (≈ 44.4 nM)
[14]; [19]
  GI50: 0.05 ng/mL (≈ 0.0586 nM)
[14]; [20]
  GI50: 258 ng/mL (≈ 302 nM)
[15]; [19]
  GI50: 5.46 ng/mL (≈ 6.39 nM)
[15]; [20]
  GI50: 1.8 ng/mL (≈ 2.11 nM)
[16]; [19]
  GI50: 0.78 ng/mL (≈ 0.913 nM)
[16]; [20]
  GI50: 1.15 ng/mL (≈ 1.35 nM)
[17]; [19]
  GI50: 5.6 ng/mL (≈ 6.56 nM)
[17]; [20]
  GI50: 514 ng/mL (≈ 602 nM)
[5]; PANC1, 24 hours
  IC50: 0.153 µM
[5]; PANC1, 48 hours
  IC50: 0.18 µM
[6]; 48 hours
  Effect on normal cell growth (WI-38) (in words): some effect on normal cell growth
[6]; WI38, 24 hours
  IC50: 19.1 µM
[6]; WI38, 48 hours
  IC50: 80 µM
[7]; PC3, 24 hours
  IC50: 0.0581 µM
[7]; PC3, 48 hours
  IC50: 0.0803 µM
[7]; PC-3, 48 hours, all concentrations
  inhibition: ~60%
[8]; SKBR3, 24 hours
  IC50: 0.694 µM
[8]; SKBR3, 48 hours
  IC50: 3.23 µM
